The source of these data is patent US6899886B2, “Acylacetonitriles, process for preparation thereof and miticides containing the same” (Otsuka Chemical Co., Ltd., priority 2000, dated 2005).

Type in all cases: in vivo
One data set concerns Orange (iyo). The data set is described as follows: Test Example 5: phytotoxicity test on field crops. Particulars: 20% wettable powder, degree of dilution 1000, 0.4 liters/m^2, 40 days after spraying. As to the method: (§1) The 20% wettable powders obtained in formulation example 2 were diluted to a predetermined degree and sprayed onto crops in a field in an amount of 0.4 liters/m^2. In a predetermined period after spraying, the development of phytotoxicity was observed by the naked eye. As test compounds, test compounds A, B and C above were used.

Another data set has as its system Pear (hosui). The data set is described as follows: Test Example 5: phytotoxicity test on field crops. Particulars: 20% wettable powder, degree of dilution 2000, 0.4 liters/m^2, 21 days after spraying. The protocol:
as §1

A further data set has as its system Apple (fuji). In words: Test Example 5: phytotoxicity test on field crops. The note with it: 20% wettable powder, degree of dilution 1000, 0.4 liters/m^2, 27 days after spraying. As to the method:
as §1

The next data set relates to Apple (jonagold). The data set is described as follows: Test Example 5: phytotoxicity test on field crops. Particulars: 20% wettable powder, degree of dilution 1000, 0.4 liters/m^2, 14 days after spraying. As to the method: as §1
The subject of the next data set is Grape (pione). The data set is described as follows: Test Example 5: phytotoxicity test on field crops. Particulars: 20% wettable powder, degree of dilution 2000, 0.4 liters/m^2, 28 days after spraying. As to the method: as §1
For the next data set, the system named is Tea (yabukita). In words: Test Example 5: phytotoxicity test on field crops. The note with it: 20% wettable powder, degree of dilution 1000, 0.4 liters/m^2, 21 days after spraying. The protocol:
as §1

Data set [1] relates to two-spotted spider mites. In words: Test Example 4: residual miticidal test on two-spotted spider mites (sprayed kidney bean plant). The note with it: 200 ppm, 30 ml sprayed on kidney bean plant, counted 2 days later; for Adjusted mortality rate (%) 3 days after spraying: mites introduced 3 days after spraying; for Adjusted mortality rate (%) 5 days after spraying: mites introduced 5 days after spraying. As to the method:
• Test compound A: Compound No. 1 in table 3 (the compound of the invention). • Test compound B: Compound No. 2 in table 3 (the compound of the invention). • Test compound C: Compound No. 10 in table 3 (the compound of the invention). • Test compound E: Compound No. a-683 disclosed in table 1-a on page 81 of Japanese Unexamined Patent Publication No. 158137/1999. (2) Preparation of Emulsifiable Concentration
Emulsifiable concentrates were prepared by adding the test compound, acetone and Sorpol 355 (surfactant) to distilled water. These emulsions were set to contain acetone in the proportion of 5 wt. % and Sorpol 355 in the proportion of 0.01 wt. %. The concentration of the test compound was set at 200 ppm.
30 ml of each emulsifiable concentrate prepared above was sprayed onto a kidney bean plant (at the stage of true leaf growth) in a 9-cm pot, and air-dried. The pot was placed in a glass greenhouse. Each of the first and second leaves was cut into a piece having a size of 3×5 cm, and 15 female adults of two-spotted spider mite were introduced thereto after 3 and 5 days of the spraying. Those pieces of leaves were placed in a thermostatic chamber having a temperature of 25±1° C. The number of live and dead mites was counted 2 days later. The mortality rate thereof was calculated in the same manner as in test example 3 above.

The subject of data set [2] is rice plants, cucumbers, cabbages, spinaches, lettuces, tomatoes, leeks, carrots or kidney bean plants. The data set is described as follows: Test Example 6: phytotoxicity test. Particulars: 0.2 liters/m^2. The protocol: As test compounds, test compounds A, B and C above were used. The 20% wettable powders prepared in formulation example 2 were diluted 500 and 1,000 times. These diluted wettable powders were sprayed onto rice plants, cucumbers, cabbages, […], lettuces, tomatoes, leeks, carrots or kidney bean plants in an amount of 0.2 liters/m^2. The development of phytotoxicity was examined by the naked eye 7 and 14 days after the spraying. […] Further, 20% wettable powders using test compound B were diluted 50, 100 and 200 times, and sprayed onto cucumbers, cabbages, leeks or carrots in an amount of 0.2 liters/m^2. The development of phytotoxicity was examined by the naked eye 7 and 14 days after spraying.

Data set [3] deals with two-spotted spider mites. The data set is described as follows: Test Example 3: miticidal test on two-spotted spider mites at low concentration. The note with it: 20 ppm emulsifiable concentrate, 2 ml sprayed on leaf with 30 female adults; counted 2 days later. As to the method:
• Test compound A: Compound No. 1 in table 3 (the compound of the invention). • Test compound B: Compound No. 2 in table 3 (the compound of the invention). • Test compound C: Compound No. 10 in table 3 (the compound of the invention). • Test compound D: Intermediate No. II-25 disclosed in table 2 on page 101 of Japanese Unexamined Patent Publication No. 158137/1999. (2) Preparation of Emulsifiable Concentrate
Emulsifiable concentrates were prepared by adding the test compound, acetone and Sorpol 355 (surfactant) to distilled water. These emulsions were set to contain acetone in the proportion of 5 wt. % and Sorpol 355 in the proportion of 0.01 wt. %. The concentration of the test compound was set at 20 ppm.
2 ml of each emulsifiable concentrate prepared above was sprayed onto a piece of a kidney bean leaf (2×4 cm) with 30 female adults of two-spotted spider mites. After being air-dried, the leaf was placed in a thermostatic chamber having a temperature of 25±1° C. The number of live and dead mites was counted 2 days later. The mortality rate was calculated using the following equation: Mortality rate={1−(survival rate in treated area)/(survival rate in untreated area)}×100

For data set [4], the system named is two-spotted spider mites. The data set is described as follows: whole plant or invertebrate. The note with it: 48 h; 200 ppm sprayed onto kidney bean leaves; after 2 days; read-out: mortality rate of the two-spotted spider mites. The source says:
A piece of non-woven fabric (4.5×5.5 cm) was suspended inside a plastic cup through an incision made in the lid of the plastic cup. After water was poured into the cup, the cup was covered with the lid. A kidney bean leaf (about 3.5×4.5 cm) was then placed on the sufficiently soaked, non-woven fabric. Another kidney bean leaf with two-spotted spider mites (about 30 mite samples) was placed on top of the first leaf, and the fabric and leaves were placed in a thermostatic chamber having a temperature of 25±2° C. and a humidity of 40%.
Miticidal formulations containing the compound of the invention (200 ppm) were prepared by adding an aqueous solution (100 ppm) of Sorpol 355 (manufactured by Toho Kagaku Co., Ltd.) to a methanol solution of the compound of the invention.
These miticidal formulations were sprayed onto the leaves, and the leaves were air-dried and placed in a thermostatic chamber (25±2° C., humidity 50%). The mortality rate of the two-spotted spider mites was calculated after 2 days.

A further data set concerns Orange (mandarin). In words: Test Example 5: phytotoxicity test on field crops. The note with it: 20% wettable powder, degree of dilution 1000, 0.4 liters/m^2, 40 days after spraying. The protocol: as §1
A further data set concerns Eggplant (senryo). The data set is described as follows: Test Example 5: phytotoxicity test on field crops. The note with it: 20% wettable powder, degree of dilution 1000, 0.4 liters/m^2, 14 days after spraying. The protocol: as §1
A further data set deals with Orange (sour orange). In words: Test Example 5: phytotoxicity test on field crops. Particulars: 20% wettable powder, degree of dilution 400, 0.4 liters/m^2, 40 days after spraying. As to the method: as §1
[5] abbreviates: 20% wettable powders diluted 500 and 1,000 times, nine plant kinds, 7 and 14 days after the spraying.

The structures appear in SMILES notation.

Consider `COCCOC(=O)C(C#N)(C(=O)c1ccccc1C(F)(F)F)c1ccc(C(C)(C)C)cc1` (racemic) [Compound No. 10], for which the Phytotoxicity entry with Orange (iyo), in the data set on Pear (hosui), in the data set on Apple (fuji), in the data set with Apple (jonagold), with Grape (pione) and in the data set with Tea (yabukita) was “None” in each case. Also, the “Adjusted mortality rate (%) 3 days after spraying” value (“Adjusted mortality rate (%) 3 days” for short) in the data set on two-spotted spider mites [1] was determined as 100%. Moreover, in the data set on two-spotted spider mites [1], the “Adjusted mortality rate (%) 5 days after spraying” value (“Adjusted mortality rate (%) 5 days” for short) is 100%. The development of phytotoxicity result in data set [2] (setting [5]) is given as “no development of phytotoxicity was observed”. Further, the mortality rate in the data set with two-spotted spider mites [3] is 100%.

In the case of `COC(=O)C(C#N)(C(=O)c1ccccc1C(F)(F)F)c1ccc(C(C)(C)C)cc1` (racemic) [Compound No. 1], the Phytotoxicity result in the data set on Orange (iyo), in the data set on Pear (hosui), with Apple (fuji), in the data set on Apple (jonagold), with Grape (pione) and in the data set with Tea (yabukita) was “None” in each case. Also, the “Adjusted mortality rate (%) 3 days” value in the data set with two-spotted spider mites [1] turned out to be 100%. In addition, the “Adjusted mortality rate (%) 5 days” value with two-spotted spider mites [1] turned out to be 95%. In data set [2] (setting [5]), the development of phytotoxicity result is “no development of phytotoxicity was observed”. Besides, the mortality rate with two-spotted spider mites [3] is recorded as 100%.

A word on the mortality: it is the percentage killed. As for `COC(=O)C(C#N)(C(=O)c1ccccc1C(F)(F)F)c1ccc(Cl)cc1` (centres unmarked) [Compound No. 30, Methyl 2-(4-Chlorophenyl)-2-(2-Trifluoromethylbenzoyl)Cyanoacetate], the mortality at 200 ppm in the data set on two-spotted spider mites [4] is at least 50%.

With `CCOC(=O)C(C#N)(C(=O)c1ccccc1C(F)(F)F)c1ccc(C(C)(C)C)cc1` (racemic) [Compound No. 2], the Phytotoxicity entry in the data set with Orange (mandarin), in the data set on Eggplant (senryo), with Orange (sour orange), in the data set on Orange (iyo), in the data set with Pear (hosui) and with Apple (fuji) was “None” each time. For the same compound, the Phytotoxicity result with Apple (jonagold), with Grape (pione) and with Tea (yabukita) was “None” each time. For the same compound, the “Adjusted mortality rate (%) 3 days” value in the data set on two-spotted spider mites [1] came to 100%. In addition, in the data set on two-spotted spider mites [1], the “Adjusted mortality rate (%) 5 days” value was determined as 93%. For the same compound, the development of phytotoxicity entry in [2] (20% wettable powders diluted 50, 100 and 200 times, cucumbers, cabbages, leeks or carrots, 7 and 14 days after spraying) was “no development of phytotoxicity was observed”; in [2] (setting [5]) it was “no development of phytotoxicity was observed”. Further, in the data set with two-spotted spider mites [3], the mortality rate is 100%.
